For orientation: IC50 means the concentration that inhibits the measured activity by half.

The structures appear in SMILES notation. Structures can show the parent of a compound that is named as a salt.

In patent US20220356176A1, “Kv11.1-3.1 INHIBITING METHODS AND COMPOSITIONS” (The Johns Hopkins University, priority 2019, published 2022) one finds IC50 data, which are given here for 31 molecules.

In this test the target is T1, KCNH2-3.1 (Kv11.1-3.1 containing potassium channel; hERG 3.1) (Homo sapiens, UniProt Q12809).
T1 construct: expressed in transfected cells; host or cells: U2OS cells transduced with hERG 3.1 BacMam virus
Briefly: KCNH2-3.1 inhibition ion (thallium) flux assay, FluxOR. The test is classed as cell-based. Conditions: U2OS cells transduced with hERG 3.1 Bacmam virus, 5 minutes compound incubation, read-out: Activity range (IC50). From the text:
The ability of the presently disclosed compounds to inhibit the activity of the ion channel produced from the KCNH2-3.1 transcript may be determined by methods known to those in the art for measuring ion channel inhibition. One method for measuring ion channel activity uses a thallium flux assay (Titus et al., 2009; FluxOR™ kit from Life Technologies). This assay measures the passage of thallium through the channel as indicated by a thallium sensitive dye loaded into the cell.
The ability of compounds to inhibit the activity of KCNH2-3.1 was determined by an ion flux assay as described (Titus et al, 2009, which is incorporated herein by reference). U2OS cells were cultured in media containing DMEM, 10% FBS, and Penicillin/Streptomycin. Cells were grown to 90% confluency then washed with PBS and pelleted. Cells were resuspended in DMEM containing 2% FBS and incubated with hERG or hERG 3.1 Bacmam virus for 4 hours at room temperature in the dark. Cells were plated onto clear-bottom PDL coated 1536 well plates and allowed to grow 16-20 hours at 37° C. FluxOr loading buffer containing 10mM Red Dye #40 was added to each well and incubated for 45 minutes. Plates were loaded and analyzed in Hamamatsu FDSS (7000) using a two-addition protocol. In the first addition step of the assay, compounds to be tested and the cell compound mixture were incubated together for 5 minutes before addition of FluxOr stimulus buffer as the second addition step. Channel activity was detected and analyzed via the slope of fluorescence intensities versus the time of first 30 s after compound addition was calculated from the kinetic results. The signal-to-basal ratio was calculated as the slope of DMSO solvent controls in the stimulated group divided by the slope of an unstimulated group. The concentration responses of compound inhibition from the experiments were analyzed with Prism software (GraphPad, San Diego, Calif., USA).
As the data herein indicate, a broad variety of compounds of formula (I), formula (II), or formula (III) were found effective as KCNH2-3.1 containing potassium channel inhibitors at low concentrations. […] In the Table 1 below, a single plus (+) is associated with an IC50 of from about 2-10 μM; two plus signs (++) is associated with an IC50 from about 500 nM to about 2 μM; and three plus signs (+++) is associated with an IC50 less than about 500 nM.

T1 sequence (Q12809 1-1063 isoform Q12809-7): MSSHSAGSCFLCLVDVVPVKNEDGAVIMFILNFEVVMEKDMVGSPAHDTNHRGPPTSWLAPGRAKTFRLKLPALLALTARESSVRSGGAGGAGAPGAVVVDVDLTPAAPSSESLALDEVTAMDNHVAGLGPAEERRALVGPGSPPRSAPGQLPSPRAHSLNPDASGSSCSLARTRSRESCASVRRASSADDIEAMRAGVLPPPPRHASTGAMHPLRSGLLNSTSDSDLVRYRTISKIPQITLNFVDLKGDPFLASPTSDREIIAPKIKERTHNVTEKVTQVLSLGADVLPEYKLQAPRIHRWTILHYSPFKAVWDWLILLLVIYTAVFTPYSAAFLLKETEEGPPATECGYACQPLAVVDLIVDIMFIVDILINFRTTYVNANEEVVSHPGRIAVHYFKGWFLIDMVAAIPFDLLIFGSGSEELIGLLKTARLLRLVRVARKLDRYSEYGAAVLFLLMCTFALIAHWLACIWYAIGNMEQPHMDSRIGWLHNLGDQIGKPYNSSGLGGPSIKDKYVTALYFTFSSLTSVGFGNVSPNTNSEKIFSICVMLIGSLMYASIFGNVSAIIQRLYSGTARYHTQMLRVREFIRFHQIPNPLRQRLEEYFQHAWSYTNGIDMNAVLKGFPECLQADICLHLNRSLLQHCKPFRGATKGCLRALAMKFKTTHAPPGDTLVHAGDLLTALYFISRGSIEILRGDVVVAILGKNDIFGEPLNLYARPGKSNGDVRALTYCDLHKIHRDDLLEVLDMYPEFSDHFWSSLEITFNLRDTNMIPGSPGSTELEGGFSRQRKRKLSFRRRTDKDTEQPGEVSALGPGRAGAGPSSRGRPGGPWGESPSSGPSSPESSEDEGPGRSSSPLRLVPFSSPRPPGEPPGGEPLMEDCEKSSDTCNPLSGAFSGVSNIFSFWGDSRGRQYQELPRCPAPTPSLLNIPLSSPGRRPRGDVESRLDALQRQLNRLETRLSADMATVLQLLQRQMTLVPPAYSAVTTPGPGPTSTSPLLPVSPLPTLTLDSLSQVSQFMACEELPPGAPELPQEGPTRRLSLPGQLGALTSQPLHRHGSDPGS

As to `O=C(CN1CCCOCC1)Nc1ccc(N2CCCCCC2)cc1` [Example 7, N-[4-(azepan-1-yl)phenyl]-2-(1,4-oxazepan-4-yl)acetamide hydrochloride], the IC50 was in the range of 2 to 10 µM.
Turning to `O=C(CN1CCC(O)(c2ccc(Cl)cc2)CC1)Nc1ccc(N2CCCCCC2)cc1` [Example 13, N-[4-(azepan-1-yl)phenyl]-2-[4-(4-chlorophenyl)-4-hydroxy-1-piperidyl]acetamide], the IC50 was < 0.5 µM.
On to `O=C(CNCc1ccccc1)Nc1ccc(N2CCCCCC2)nc1` [Example 31, N-[6-(azepan-1-yl)-3-pyridyl]-2-(benzylamino)acetamide], for which the IC50 lay in the range of 2 to 10 µM.
In the case of `O=C(CN1CCCCC1)Nc1cnc(N2CCCCCC2)nc1` [Example 35, N-[2-(azepan-1-yl)pyrimidin-5-yl]-2-(1-piperidyl)acetamide], the IC50 lay in the range of 0.5 to 2 µM.
As for `CC1CC(c2ccccc2)CCN1CC(=O)Nc1ccc(N2CCCCCC2)cc1` (mixture of isomers) [Example 19, N-[4-(azepan-1-yl)phenyl]-2-(2-methyl-4-phenyl-1-piperidyl)acetamide], the IC50 lay in the range of 0.5 to 2 µM.
In the case of `O=C(CN1CCCCC1)Nc1ccc(N2CCCCCC2)cn1` [Example 34] it was 2 to 10 µM; in that of `O=C(CN1CCCCC1)Nc1ccc(N2CCCCCC2)c(F)c1` [Example 36, N-[4-(azepan-1-yl)-3-fluoro-phenyl]-2-(1-piperidyl)acetamide], < 0.5 µM.
Turning to `N#Cc1cccc(C2CCN(CC(=O)Nc3ccc(N4CCCCCC4)cc3)CC2)c1` [Example 18, N-[4-(azepan-1-yl)phenyl]-2-[4-(3-cyanophenyl)-1-piperidyl]acetamide], the IC50 is < 0.5 µM.
Then `O=C(CN1CCCC(OCc2ccccc2)C1)Nc1ccc(N2CCCCCC2)cc1` (stereo not shown) [Example 22, N-[4-(azepan-1-yl)phenyl]-2-(3-benzyloxy-1-piperidyl)acetamide], with 0.5 to 2 µM; and `CC1CCCN(CC(=O)Nc2ccc(N3CCCCCC3)cc2)C1` (stereo not shown) [Example 15], with 2 to 10 µM.
In the case of `O=C(CN1CCCCC1)Nc1ccc(N2CCCCCC2)cc1F` [Example 38, N-4-(azepan-1-yl)-2-fluoro-phenyl1-2-(1-piperidyl)acetamide], the half-maximal inhibitory concentration (IC50) was 2 to 10 µM.
As for `O=C(CN1CC2CCC(C2)C1)Nc1ccc(N2CCCCCC2)nc1` [Example 32, 2-(3-azabicyclo[3.2.1]octan-3-yl)-N-[6-(azepan-1-yl)-3-pyridyl]acetamide], the concentration for half-maximal inhibition (IC50) was < 0.5 µM.
Regarding `O=C(CN1CCCC(F)C1)Nc1ccc(N2CCCCCC2)cc1` (stereo not shown) [Example 8, N-[4-(azepan-1-yl)phenyl]-2-(3-fluoro-1-piperidyl)acettamide], the IC50 is 0.5 to 2 µM.
In the case of `O=C(CNC1CCCCCC1)Nc1ccc(N2CCCCCC2)nc1` [Example 29, N-[6-(azepan-1-yl)-3-pyridyl]-2-(cycloheptylamino)acetamide], the IC50 was 0.5 to 2 µM.
Consider `O=C(CCN1CCCCC1)Nc1ccc(N2CCCCCC2)cc1` [Example 23], for which the IC50 was 2 to 10 µM.
For `O=C(CN1CCCC(c2cccc(Cl)c2)C1)Nc1ccc(N2CCCCCC2)cc1` (stereo not shown) [Example 17, N-[4-(azepan-1-yl)phenyl]-2-[3-(3-chlorophenyl)-1-piperidyl]acetamide], the concentration for half-maximal inhibition (IC50) was < 0.5 µM.
`O=C(CN1CCCC1)Nc1ccc(N2CCCCCC2)cc1` [Example 14, N-[4-(azepan-1-yl)phenyl]-2-pyrrolidin-1-yl-acetamide hydrochloride]: the IC50 lay within 2 to 10 µM.
With `O=C(CN1CCC(c2ccc(F)cc2)C1)Nc1ccc(N2CCCCCC2)cc1` (stereo not shown) [Example 20, N-[4-(azepan-1-yl)phenyl]-2-[3-(4-fluorophenyl)pyrrolidin-1-yl]acetamide], the IC50 is 0.5 to 2 µM.
Take `CC(C(=O)Nc1ccc(N2CCCCCC2)cc1)N1CCCCC1` (stereo not shown) [Example 24, N-[4-(azepan-1-yl)phenyl]-2-(1-piperidyl)propanamide]: the IC50 is 2 to 10 µM.
Regarding `O=C(CN1CCC(CO)CC1)Nc1ccc(N2CCCCCC2)cc1` [Example 10, N-[4-(azepan-1-yl)phenyl]-2-[4-(hydroxymethyl)-1-piperidyl]acetamide], the IC50 was 2 to 10 µM.
Then `O=C(CN1CCCCC1C(F)(F)F)Nc1ccc(N2CCCCCC2)cc1` (stereo not shown) [Example 9, N-[4-(azepan-1-yl)pheny]-2-[2-(trifluoromethyl)-1-piperidyl]acetamide], with 0.5 to 2 µM; and `O=C(CN1CCCCC1)Nc1ccc(N2CCCCCC2)nc1` [Example 25, N-[6-(azepan-1-yl)-3-pyridyl]-2-(1-piperidyl)acetamide], with 0.5 to 2 µM; and `CN(CC(=O)Nc1ccc(N2CCCCCC2)nc1)C1CCCCC1` [Example 28], with 2 to 10 µM.
Regarding `O=C(CNc1ccccc1)Nc1ccc(N2CCCCCC2)nc1` [Example 30, 2-anilino-N-[6-(azepan-1-yl)-3-pyridyl]acetamide], the IC50 was 0.5 to 2 µM.
Regarding `O=C(CN1CCCCC1)Nc1ccc(N2CCCOCC2)cc1` [Example 1, N-[4-(1,4-oxazepan-4-yl)phenyl]-2-(1-piperidyl)acetamide hydrochloride], the IC50 is 2 to 10 µM.
`O=C(CNC1CCCCC1)Nc1ccc(N2CCCCCC2)nc1` [Example 27, N-[6-(azepan-1-yl)-3-pyridyl]-2-[cyclohexylamino]acetamide]: the IC50 fell in the range of 2 to 10 µM.
In the case of `O=C(CN1CCCCC1c1ccc(Cl)cc1)Nc1ccc(N2CCCCCC2)cc1` (stereo not shown) [Example 16, N-[4-(azepan-1-yl)phenyl]-2-[2-(4-chlorophenyl)-1-piperidyl]acetamide], the IC50 lay in the range of 0.5 to 2 µM.
With `O=C(CN1CCCCC1CO)Nc1ccc(N2CCCCCC2)cc1` (stereo not shown) [Example 11, N-[4-(azepan-1-yl)phenyl]-2-[2-(hydroxymethyl)-1-piperidyl]acetamide], the 50% inhibitory concentration (IC50) fell in the range of 2 to 10 µM.
In the case of `CC1CCN(c2ccc(NC(=O)CN3CC4CCC3CC4)cn2)CC1` [Example 3, 2-(8-azabicyclo[3.2.1]octan-8-yl)-N-16-(4-methyl-1-piperidyl)-3-pyridyljacetamide] it was 0.5 to 2 µM; in that of `O=C(CN1C2CCC1CC2)Nc1ccc(N2CCCCCC2)nc1` [Example 26, 2-(7-azabicyclo[2.2.1]heptan-7-yl)-N-[6-(azepan-1-yl)-3-pyridyl]acetamide], 0.5 to 2 µM; in that of `CC(C)(O)C1CCN(CC(=O)Nc2ccc(N3CCCCCC3)cc2)CC1` [Example 12, N-[4-(azepan-1-yl)phenyl]-2-[4-(1-hydroxy-1-methyl-ethyl)-1-piperidyl]acetamide], 2 to 10 µM.
